One may read the melting point as the temperature, or range, at which the solid turns liquid.

`OC(c1ccccc1)c1ccc(Nc2nccc(-c3cnc4ccccn34)n2)cc1` (racemic) [Example 8, (±)-2-[4-(Hydroxyphenylmethyl)anilino]-4-(imidazo-[1,2-a]-pyridin-3-yl)pyrimidine] came in with a melting point of 213 to 216 °C.
Turning to `O=C(c1ccc(Nc2nccc(-c3cnc4ccccn34)n2)cc1)c1ccc(N2CCOCC2)cc1` [Example 1, 2-[4-(4-Morpholinobenzoyl)anilino]-4-(imidazo-[1,2-a]-pyridin-3-yl)pyrimidine], the melting point was > 237 °C (dec.).
As for `Cc1ccc(C(=O)c2ccc(Nc3nccc(-c4cnc5ccccn45)n3)cc2)cc1` [Example 3, 2-[4-(4-Methylbenzoyl)anilino)-4-(imidazo-[1,2-a]-pyridin-3-yl)pyrimidine], the figure is 238.9 to 239.2 °C.
To `N#Cc1ccc(C(=O)c2ccc(Nc3nccc(-c4cnc5ccccn45)n3)cc2)cc1` [Example 4, 2-[4-(4-Cyanobenzoyl)anilino]-4-(imidazo-[1,2-a]-pyridin-3-yl)pyrimidine] belongs > 230 °C (dec.); to `O=C(c1ccc(Nc2nccc(-c3cnc4ccccn34)n2)cc1)c1cccc(Cl)c1` [Example 5, 2-[4-(3-Chlorobenzoyl)anilino]-4-(imidazo-[1,2-a)-pyridin-3-yl)pyrimidine], 194.7 to 196.7 °C; to `CCOc1cccc(C(=O)c2ccc(Nc3nccc(-c4cnc5ccccn45)n3)cc2)c1` [Example 6, 2-[4-(3-Ethoxybenzoyl)anilino]-4-(imidazo-[1,2-a]-pyridin-3-yl)pyrimidine], 197.3 to 197.5 °C.
In the case of `O=C(c1ccccc1)c1ccc(Nc2nccc(-c3cnc4ccccn34)n2)cc1` [Example 7, 2-(4-Benzoylanilino)-4-(imidazo-[1,2-a]-pyridin-3-yl)pyrimidine], the melting point was 249 to 255 °C (dec.).
To `O=C(Cc1ccccc1)c1ccc(Nc2nccc(-c3cnc4ccccn34)n2)cc1` [Example 9, 2-[4-(1-Oxo-2-phenylethyl)anilino]-4-(imidazo-[1,2-a]-pyridin-3-yl)pyrimidine] belongs 225 to 228 °C (dec.).
Regarding `O=C(c1ccccc1)c1cccc(Nc2nccc(-c3cnc4ccccn34)n2)c1` [Example 10, 2-(3-Benzoylanilino)-4-(imidazo-[1,2-a]-pyridin-3-yl)pyrimidine], the melting point is 237 to 246 °C (dec.).
To `O=C(c1ccc(Nc2nccc(-c3cnc4ccccn34)n2)cc1)c1ccc2cc[nH]c2c1` [Example 11, 2-[4-(1 H-Indol-6-ylcarbonyl)anilino]-4-(imidazo-[1,2-a]-pyridin-3-yl)pyrimidine] belongs 173 to 178 °C (dec.); to `O=C(c1ccc(Nc2nccc(-c3cnc4ccccn34)n2)cc1)c1nccs1` [Example 13, 2-[4-(1,3-Thiazol-2-ylcarbonyl)anilino]-4-(imidazo-[1,2-a]-pyridin-3-yl)pyrimidine], 234 to 235 °C (dec.).

(Values after patent US7345050B2, “Pyrimidine compounds” (AstraZeneca AB, priority 2001, dated 2008).)
